Molecules are shown by their SMILES. pEC50: −log10 of the molar value.

The assay deals with T1, GPR40 (Homo sapiens, UniProt O14842).
T1 construct: expressed in transfected cells
T1 sequence (O14842 whole entry, species assumed): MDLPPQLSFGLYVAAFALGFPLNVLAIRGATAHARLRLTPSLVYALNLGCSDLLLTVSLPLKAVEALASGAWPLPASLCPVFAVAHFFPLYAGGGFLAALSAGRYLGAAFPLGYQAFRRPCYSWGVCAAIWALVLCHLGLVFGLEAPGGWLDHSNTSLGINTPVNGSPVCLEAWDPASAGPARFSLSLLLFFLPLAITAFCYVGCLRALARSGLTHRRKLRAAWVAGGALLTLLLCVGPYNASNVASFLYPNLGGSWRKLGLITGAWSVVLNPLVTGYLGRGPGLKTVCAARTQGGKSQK
Description: GPR40 Activation Assay (Wash Free Fluo-8 Calcium Assay). The format is cell-based. To be noted: HEK293 cells stably expressing GPR40; fluorescence intensity Ex=494 nm, Em=516 nm. Here is the method: This test procedure substantially carried out in accordance with the HDB company's Wash Free Fluo-8 Calcium Assay Kits. HEK293 cells stably expressing GPR40 were selected in a media containing Neomycin/G418. The cells were plated at a concentration of 30 uL 15,000 cells per well in black 384-well clear bottom tissue culture treated plates. The cells were incubated for 24 h in a incubator with 5% CO2.
According to Wash Free Fluo-8 Calcium Assay Kits operating instruction, one component A was dissolved in 210 uL DMSO, one component B was dissolved in 2.4 mL component C. After a 200 mM probenecid solution was prepared, 40 μL component A, 400 μL component B, 200 μL 200 mM probenecid and […] component C were mixed to a 20 mL test solution.
After removal of medium from the black 384-well dear bottom tissue culture treated plates by centrifuge, the test solution was added at 30 uL/well and the plates were incubated for 60 mins at 37° C. All test compounds were diluted to appropriate concentrations in HBSS buffer. Compounds were added to the cells and the wells were read fluorescence intensity at Ex=494 nm, Em=516 nm and readings were taken for 2 mins with an interval of 1 s. The compounds dose-dependent curve and EC50 were obtained by the Graphpad Prism4 software.
For the compound `COCCCOc1cc(C)c(-c2cccc3c2CCC3Oc2ccc3c(c2)SC[C@H]3CC(=O)O)c(C)c1` (stereo partly drawn) [Example 53, 2-((3S)-6-((4-(4-(3-methoxypropoxy)-2,6-dlmethylphenyl)-2,3-dihydro-1H-inden-1-yl)oxy)-2,3-dihydrobenzo[b]thiophen-3-yl)acetic acid], the pEC50 was 6.00.
In the case of `Cc1cc(OCCCS(C)(=O)=O)cc(C)c1-c1cccc2c1CCC2Oc1ccc2c(c1)SC[C@H]2CC(=O)O` (stereo partly drawn) [Example 51, 2-((3S)-6-((4-(2,6-dimethyl-4-(3-(methylsulfonyl)propoxy)phenyl)-2,3-dihydro-1H-inden-1-yl)oxy)-2,3-dihydrobenzo[b]thiophen-3-yl)acetic acid] it was 6.06.
In the case of `CSCCCOc1cc(C)c(-c2cccc3c2CCC3Oc2ccc3c(c2)SC[C@H]3CC(=O)O)c(C)c1` (stereo partly drawn) [Example 52, 2-((3S)-6-((4-(2,6-dimethyl-4-(3-(metylthio)porpoxy)phenyl)-2,3-dihydro-1H-inden-1-yl)oxy)-2,3-dihydrobenzo[b]thiophen-3-yl)acetic acid] it was 5.90.

A word on the pEC50: it is −log10 of the EC50, conventionally taken in molar units.
